In patent US20060024264A1, “Antimicrobial copolymers and uses thereof” (priority 2004, published 2006):

Test system: E. coli
Experiment: Antimicrobial assays (MIC, cell growth by optical density at 595 nm)
Assay type: cell-based
Settings: Escherichia coli; incubation time 18 hours; 2-fold dilution series 500-3.9 μg/mL
Method: Antimicrobial assays. Each polymer was dissolved in DMSO (5 mg/mL). […] The polymer solutions with E. coli were incubated at 36° C. for 18 hours, and cell growth was measured by optical density at λ=595 nm (Liu, D., et al., Angew. Chem. Int. Ed., 43:1158 (2004); Tew, G. N., et al., PNAS 99:5110 (2002)).

MIC: > 500 µg/mL
SMILES: C=C(C)C(=O)OCCN.Cl [Monomer, 2-aminoethyl methacrylate hydrochloride]
